According to patent EP4786459A1, “BENZENE RING-CONTAINING COMPOUND HAVING ANALGESIC EFFECT, PREPARATION METHOD THEREFOR, AND USE THEREOF” (West China Hospital, Sichuan University, priority 2023, dated 2025):

Test system: rats
Experiment: Loss of tail withdrawal reflex (LOTWR) in rats, single intravenous injection, dose escalation: potent analgesic effect and severe adverse reactions
Format: in vivo, SD rats
Conditions: Rattus norvegicus, single intravenous injection (tail vein), LOTWR lasting for 30 seconds as criterion, class symbol, read-out: The minimum effective dose
Procedure: (§1) Using the loss of tail withdrawal reflex (LOTWR) in rats as an indicator, the potent analgesic effect of the compounds according to the present invention was evaluated.
(§2) 1.1 Experimental animals: Adult male SD rats weighing between 220-300 g were selected for the experiment. The rats were housed in sawdust-bedded cages with a temperature of 25±1°C, humidity ranging from 40% to 60%, and a 12-hour light/12-hour dark cycle. Each cage contained no more than 5 rats, with free access to water and food.
(§3) • (1) The compound of the present invention, along with the positive control drug remifentanil and the negative control (vehicle), were administered in fixed volumes. A dose escalation approach was employed to determine the minimum effective dose at which the compound of the present invention produces potent analgesic effects, as well as the minimum dose at which severe adverse reactions first appear. • (2) LOTWR lasting for 30 seconds was used as the criterion for generating potent analgesic effects. During the experiment, drugs were administered via the tail vein of rats, with a dosage volume of 0.6 mL per rat and a dosage rate of 0.02 mL/s. Subsequently, an alligator clip was applied at a distance of 1 cm from the base of the rat's tail, clamping once longitudinally and once transversely before being left in place. Meanwhile, the distal end of the alligator clip was continuously oscillated (30 times/min) to continuously generate stimulation. […] When all results were "no LOTWR" after 10 minutes of testing (5 trials), the test was stopped and recorded as "ineffective." • (3) All compounds would undergo a dose escalation for efficacy evaluation, starting from 1 mg/kg (due to the high potency of remifentanil, the lowest dose was set at 1 µg/kg), followed by 5 mg/kg, 10 mg/kg, 20 mg/kg, and so on (increasing by 20 mg/kg increments after 20 mg/kg). The dose escalation would be stopped when rats show signs of death, and the lowest effective dose and the lowest dose at which severe adverse reactions occur would be recorded throughout the process. In this study, severe adverse reactions are defined as apnea, generalized tonic rigidity, convulsions, opisthotonus, seizures, etc.
(§4) 1.3 Evaluation indicators: the minimum effective dose; the minimum dose resulting in serious adverse reactions; the safety therapeutic index = "the minimum dose resulting in serious adverse reactions" / "the minimum effective dose".

Structure (SMILES) | minimal effective dose
CN(C)c1cc(C2CC2)ccc1CNC(=S)NCc1cccs1 [Example 119] | ≤ 10 mg/kg
Cc1ccc(CNC(=S)NCc2ccsc2)cc1N(C)C [Example 19, 1-(3-(dimethylamino)-4-methylbenzyl)-3-(thiophene-3-ylmethyl)thiourea] | ≤ 10 mg/kg
Cc1ccc(CSC(=O)OCc2ccsc2)c(N(C)C)c1 [Example 99] | > 30 mg/kg
Cc1ccc(CNC(=S)NCc2ccns2)cc1N(C)C [Example 68] | ≤ 10 mg/kg
Cc1ccc(CNc2c(NCc3ccsc3)c(=O)c2=O)c(N(C)C)c1 [Example 8] | > 30 mg/kg
Cc1ccc(CNC(=O)NCc2ccsc2)c(N2CCCCC2)c1 [Example 54] | ≤ 10 mg/kg
Cc1ccc(N(C)C)c(CNC(=O)NCc2ccns2)c1 [Example 49] | > 30 mg/kg
Cc1cc(CNC(=O)NCc2ccc(C)c(N(C)C)c2)n(C)n1 [Example 113] | 10 to 20 mg/kg
COC(=O)CCc1ccc(CNC(=O)NCc2ccsc2)c(N(C)C)c1 [Example 44] | 10 to 20 mg/kg
Cc1ccc(CNC(=S)NCc2ccc3ccsc3c2)c(N(C)C)c1 [Example 94] | ≤ 10 mg/kg
[2H]C([2H])([2H])N(c1cc(C)ccc1CNC(=S)NCc1cccs1)C([2H])([2H])[2H] [Example 82] | ≤ 10 mg/kg
Cc1ccc(CNC(=O)NCc2ccsc2)cc1N(C)C [Example 18] | ≤ 10 mg/kg
Cc1ccc(CNC(=O)NCc2ncc[nH]2)cc1N(C)C [Example 58] | > 30 mg/kg
CN(C)c1ccccc1CNC(=O)NCc1ccns1 [Example 41] | > 30 mg/kg
Cc1ccc(CNC(=C[N+](=O)[O-])NCc2ccsc2)c(N(C)C)c1 [Example 7] | > 30 mg/kg
Cc1ccc(CNC(=N)NCc2cccs2)c(N(C)C)c1 [Example 26] | > 30 mg/kg
Cc1ccc(CNC(=O)NCc2ccco2)c(N(C)C)c1 [Example 23] | > 30 mg/kg
Cc1ccc(CNC(=O)NCc2ccco2)cc1N(C)C [Example 36] | ≤ 10 mg/kg
Cc1ccc(CNC(=O)NCc2ccnn2C)cc1N(C)C [Example 112] | ≤ 10 mg/kg
Cc1ccc(COC(=O)NCc2ccsc2)c(N(C)C)c1 [Example 6, 2-(dimethylamino)-4-methylbenzyl(thiophene-3-ylmethyl)carbamate] | ≤ 10 mg/kg
Cc1ccc(CNC(=S)NCc2ccnn2C)c(N(C)C)c1 [Example 87] | ≤ 10 mg/kg
Cc1ccc(CNC(=O)NCc2cc(C)nn2C)c(N(C)C)c1 [Example 117] | > 30 mg/kg
Cc1ccc(CNC(=S)NCc2ccccc2)c(N(C)C)c1 [Example 85] | ≤ 10 mg/kg
Cc1ccc(CNC(=S)NCc2ccoc2)cc1N(C)C [Example 72] | ≤ 10 mg/kg
Cc1ccc(CNC(=O)Nc2ncc[nH]2)c(N(C)C)c1 [Example 103] | ≤ 10 mg/kg
Cc1ccc(CNC(=N)NCc2ccsc2)cc1N(C)C [Example 20, 1-(3-(dimethylamino)-4-methylbenzyl)-3-(thiophen-3-ylmethyl)guanidine] | ≤ 10 mg/kg
Cc1ccc(CNC(=N)NCc2cc(C)nn2C)c(N(C)C)c1 [Example 108] | ≤ 10 mg/kg
Cc1ccc(CNC(=O)NCCc2ccsc2)c(N(C)C)c1 [Example 12, 1-(2-(dimethylamino)-4-methylbenzyl)-3-(2-(thiophene-3-yl)ethyl)urea] | ≤ 10 mg/kg
[2H]C([2H])([2H])N(c1cc(C)ccc1CNC(=O)NCc1ccsc1)C([2H])([2H])[2H] [Example 17] | ≤ 10 mg/kg
CCCCc1ccc(CNC(=S)Nc2cccs2)c(N(C)C)c1 [Example 114] | ≤ 10 mg/kg

Test system: not listed separately
Experiment: as above
Format: in vivo, SD rats
Conditions: rat, in vivo, single intravenous injection, minimum dose resulting in serious adverse reactions / minimum effective dose, class symbol, read-out: The safety therapeutic index
Procedure: as §1, §2, §3, §4

Structure (SMILES) | selectivity ratio
CN(C)c1cc(C2CC2)ccc1CNC(=S)NCc1cccs1 [Example 119] | ≤ 2
Cc1ccc(CNC(=S)NCc2ccsc2)cc1N(C)C [Example 19, 1-(3-(dimethylamino)-4-methylbenzyl)-3-(thiophene-3-ylmethyl)thiourea] | ≤ 2
Cc1ccc(CSC(=O)OCc2ccsc2)c(N(C)C)c1 [Example 99] | ≤ 2
Cc1ccc(CNC(=S)NCc2ccns2)cc1N(C)C [Example 68] | 2 to 4
Cc1ccc(CNc2c(NCc3ccsc3)c(=O)c2=O)c(N(C)C)c1 [Example 8] | ≤ 2
Cc1ccc(CNC(=O)NCc2ccsc2)c(N2CCCCC2)c1 [Example 54] | ≤ 2
Cc1ccc(N(C)C)c(CNC(=O)NCc2ccns2)c1 [Example 49] | 2 to 4
Cc1cc(CNC(=O)NCc2ccc(C)c(N(C)C)c2)n(C)n1 [Example 113] | > 4
COC(=O)CCc1ccc(CNC(=O)NCc2ccsc2)c(N(C)C)c1 [Example 44] | ≤ 2
Cc1ccc(CNC(=S)NCc2ccc3ccsc3c2)c(N(C)C)c1 [Example 94] | > 4
[2H]C([2H])([2H])N(c1cc(C)ccc1CNC(=S)NCc1cccs1)C([2H])([2H])[2H] [Example 82] | 2 to 4
Cc1ccc(CNC(=O)NCc2ccsc2)cc1N(C)C [Example 18] | 2 to 4
Cc1ccc(CNC(=O)NCc2ncc[nH]2)cc1N(C)C [Example 58] | ≤ 2
CN(C)c1ccccc1CNC(=O)NCc1ccns1 [Example 41] | ≤ 2
Cc1ccc(CNC(=C[N+](=O)[O-])NCc2ccsc2)c(N(C)C)c1 [Example 7] | ≤ 2
Cc1ccc(CNC(=N)NCc2cccs2)c(N(C)C)c1 [Example 26] | ≤ 2
Cc1ccc(CNC(=O)NCc2ccco2)c(N(C)C)c1 [Example 23] | ≤ 2
Cc1ccc(CNC(=O)NCc2ccco2)cc1N(C)C [Example 36] | > 4
Cc1ccc(CNC(=O)NCc2ccnn2C)cc1N(C)C [Example 112] | > 4
Cc1ccc(COC(=O)NCc2ccsc2)c(N(C)C)c1 [Example 6, 2-(dimethylamino)-4-methylbenzyl(thiophene-3-ylmethyl)carbamate] | 2 to 4
Cc1ccc(CNC(=S)NCc2ccnn2C)c(N(C)C)c1 [Example 87] | > 4
Cc1ccc(CNC(=O)NCc2cc(C)nn2C)c(N(C)C)c1 [Example 117] | 2 to 4
Cc1ccc(CNC(=S)NCc2ccccc2)c(N(C)C)c1 [Example 85] | ≤ 2
Cc1ccc(CNC(=S)NCc2ccoc2)cc1N(C)C [Example 72] | 2 to 4
Cc1ccc(CNC(=O)Nc2ncc[nH]2)c(N(C)C)c1 [Example 103] | > 4
Cc1ccc(CNC(=N)NCc2ccsc2)cc1N(C)C [Example 20, 1-(3-(dimethylamino)-4-methylbenzyl)-3-(thiophen-3-ylmethyl)guanidine] | ≤ 2
Cc1ccc(CNC(=N)NCc2cc(C)nn2C)c(N(C)C)c1 [Example 108] | > 4
Cc1ccc(CNC(=O)NCCc2ccsc2)c(N(C)C)c1 [Example 12, 1-(2-(dimethylamino)-4-methylbenzyl)-3-(2-(thiophene-3-yl)ethyl)urea] | ≤ 2
[2H]C([2H])([2H])N(c1cc(C)ccc1CNC(=O)NCc1ccsc1)C([2H])([2H])[2H] [Example 17] | 2 to 4
CCCCc1ccc(CNC(=S)Nc2cccs2)c(N(C)C)c1 [Example 114] | 2 to 4
